From paper PMC7824769, “Identification of Small Molecules Blocking the Pseudomonas aeruginosa Type III Secretion System Protein PcrV” (Biomolecules, 2021) come the findings set out here.

Where two headings read alike, the source gives them in different places.

The subject of this assay is J774 cells infected with P. aeruginosa strain PAK. The assay is described as follows: cells. The settings on record: for Anti-virulence efficacy in the infection assay (in words): 25-200 µM; for viability at 25 µM / viability at 50 µM / viability at 100 µM / viability at 200 µM: Pseudomonas aeruginosa; for viability at 25 µM: J774, compound 25 µM; for viability at 50 µM: J774, compound 50 µM; for viability at 100 µM: J774, compound 100 µM; for viability at 200 µM: J774, compound 200 µM. The assay is classed as cell-based, Pseudomonas aeruginosa. Here is the method: The cell viability assay was performed essentially as described before. J774 cells were seeded in 96-well micro-titer plates (Nunc), 100 µL/well, to a final number of 50,000 cells/well in Dulbecco’s modified Eagle’s medium (DMEM) with glutamax (Merck) supplemented with 10% fetal calf serum (FCS) and 3 µg/mL gentamicin and incubated for 16-18 h. Overnight cultures of the P. aeruginosa strains PAK and PAKpcrV [10] were grown in Luria Broth (LB) on a rotary shaker at 220 rpm at 37 °C. Prior to infection, the bacteria were diluted 1:10 in DMEM + glutamax and incubated for 1 h at 37 °C (shaking). The J774 cells were washed once with PBS, then 30 µL of DMEM with glutamax and 10% FCS supplemented with the potential binders at concentrations of 50, 100, 200, and 400 µM were added to the wells in triplicates. The infection was initiated by adding 30 µL of the diluted bacterial solutions (where the OD600 had been diluted to 0.0008) to each well to initiate infection. This infection results in a final bacterial concentration of OD600 = 0.0004 and a multiplicities of infection (MOI) of approximately 8, with final concentrations of the compounds at 25, 50, 100, and 200 µM in 60 µL of DMEM + glutamax and 5% FCS. In the primary screening, the compounds were run at one concentration (100 µM) in duplicates. As an infection control, the wild-type strain PAK with 1% DMSO was added, and as a positive control, PAKpcrV with 1% DMSO was added into four wells each. After 3 h and 30 min, 10 µL of UptiBlue Viable Cell Counting Kit (Interchime, France) was added to all wells. The infection was followed under the light microscope and the fluorescence (excitation 535 nm and emission 595 nm) was measured at 4, 5, and 6 h in a microplate reader (Synergy™ H4, Biotek). The results were calculated as percentage of living cells compared to uninfected control, where the uninfected control was set to 100% living cells and the infected control was set to 0% living cells. As a control, compounds were added to uninfected cells in a parallel experiment and viability was calculated as above to screen for cell toxicity. A compound was considered toxic if the viability was <80% of the uninfected control after 6 h of incubation and if a visual change of cell morphology was observed by microscopy. Z’ was calculated for each plate to ensure good quality throughout the screening. Only results from plates with a Z’ > 0.4 were counted. Standard deviation was calculated with Gaussian approximation when appropriate and shown as error bars in Figure 3C and Figure 4A.
The T3SS is important for P. aeruginosa infection of eukaryotic cells, and a T3SS activator mutant or a mutant lacking the T3SS tip protein PcrV are not able to infect eukaryotic cells. The macrophage cell line, J774, was infected with the wild-type P. aeruginosa strain PAK, and the potential PcrV binders were added to the wells at a final concentration of 100 µM to screen for inhibition of infection. The T3SS-mediated cytotoxic effect on the eukaryotic cells was measured by using a viability staining method (Uptiblue, Interchim), and the results were measured after 4, 5, and 6 h of infection. The pcrV-mutant (PAKpcrV), which is not able to infect macrophages due to deletion of the PcrV protein, was used as a control.

The mark [1] stands for this setting: uninfected control = 100%, infected control = 0%, read-out: Viability Assay (% of Uninfected Control) 25 µM.
Where [2] appears, read: uninfected control = 100%, infected control = 0%, read-out: Viability Assay (% of Uninfected Control) 50 µM.
Setting [3] is: uninfected control = 100%, infected control = 0%, read-out: Viability Assay (% of Uninfected Control) 100 µM.
[4] abbreviates: uninfected control = 100%, infected control = 0%.

In the case of `Cc1c(Br)ccc(OC[C@@H]2C[C@H]2C(=O)O)c1C` (relative stereo) [Compound 32], the “Anti-virulence efficacy in the infection assay (in words)” value was “as efficacious as or better than H1”. Besides, the viability at 25 µM under setting [1] was 22%. In addition, under setting [2], the viability at 50 µM turned out to be 21%. Also, the viability at 100 µM under setting [3] is 33%. In addition, under setting [4], the viability at 200 µM was not above 38%.

Regarding `Cc1c(Br)ccc(OCCCC(=O)O)c1C` [Compound H1], the viability at 25 µM is -4% (one representative experiment, read-out: Macrophage Viability, wt+25 µM (Figure 3C)) and 12% under setting [1]. Further, the viability at 50 µM was 19% (one representative experiment, read-out: Macrophage Viability, wt+50 µM (Figure 3C)) and 20% under setting [2]. Besides, the viability at 100 µM reads like this: (one representative experiment, read-out: Macrophage Viability, wt+100 µM (Figure 3C)) 42%; under setting [3], 27%. Under setting [4], the viability at 200 µM amounted to 28%.

`Cc1c(Br)ccc(OC[C@@H]2C[C@@H]2C(=O)O)c1C` (relative stereo) [Compound 33]: the “Anti-virulence efficacy in the infection assay (in words)” value was “as efficacious as or better than H1”. The viability at 25 µM under setting [1] came to 24%. In addition, under setting [2], the viability at 50 µM was determined as 24%. Besides, under setting [3], the viability at 100 µM was determined as 38%. Moreover, the viability at 200 µM under setting [4] was not above 38%.
